Measured values: PMC9465256, “Discovering monoacylglycerol lipase inhibitors by a combination of fluorogenic substrate assay and activity-based protein profiling” (Frontiers in Pharmacology, 2022)

Experiments:
Format in all cases: biochemical
human MAGL = target: T1, human MAGL (Homo sapiens, UniProt Q99685); experiment: MAGL activity assay (AA-HNA fluorogenic substrate); conditions: read-out: MAGL Inhibition (%)
T1 construct: expressed in transfected cells; host or cells: HEK293T (transient transfection; membrane fraction)
T1 sequence (Q99685 1-303): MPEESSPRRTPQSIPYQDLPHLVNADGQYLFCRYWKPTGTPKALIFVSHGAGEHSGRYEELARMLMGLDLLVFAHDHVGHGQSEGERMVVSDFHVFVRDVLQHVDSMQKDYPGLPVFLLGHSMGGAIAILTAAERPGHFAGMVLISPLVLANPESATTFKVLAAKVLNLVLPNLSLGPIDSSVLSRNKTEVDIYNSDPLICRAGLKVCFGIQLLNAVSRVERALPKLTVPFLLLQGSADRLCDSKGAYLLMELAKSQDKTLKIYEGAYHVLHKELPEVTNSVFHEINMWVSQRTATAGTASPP
Procedure: (§1) HEK293T cells were cultured at 37°C under 5% CO2 in a DMEM medium with stable glutamine and phenolred, containing 10% fetal bovine serum (FBS, Gibco), penicillin, and streptomycin. The cells were passaged every 2–3 days by resuspension in the medium at ∼90% confluence. The membranes used in this study were prepared from transiently transfected HEK293T cells. Briefly, 1 day prior to transfection, ∼10^7 cells were seeded in 15 cm plates, and then the cells were transfected by the addition of a mixture of polyethyleneimine and plasmid DNA (3:1, 60, and 20 µg) in 2 ml of medium (without serum). Of note, the empty pcDNA3.1 vector was used in the Mock-control. After 24 h, the medium was removed and the cells were refreshed with fresh medium. After 72 h, the cells were harvested by suspending in 20 ml of medium, and the supernatant was removed by centrifugation for 10 min at 1,000 rpm. The cell pellet was flash frozen in liquid nitrogen and stored at −80°C until use. Subsequently, the cell pellets were suspended in lysis buffer (30 mM Tirs, pH 7.5, 1 mM MgCl2, 25 U/ml Benzonase), which was homogenized by sonication (3 × 10 bursts) and incubated for 30 min on ice. The membrane fractions overexpressing MAGL/ABHD6/ABHD12 were separated by ultracentrifuge (100,000 g, 30 min, 4 C). The protein concentration was determined with a Qubit protein assay (Invitrogen). The protein samples were quickly frozen in liquid nitrogen and stored at −80 C until use.
The MAGL activity assay is based on the hydrolysis of 2-arachidonoylglycerol-based fluorogenic substrate by MAGL-overexpressing membrane preparations from transiently transfected HEK293T cells. In brief, the reactions were performed in HEPES buffer (40 mM HEPES, pH 7.5, 0.1 mg/ml BSA) in black, flat bottom 96-well plates. […] After the incubation of the inhibitor-protein complex for 30 min, 10 µl of the fluorogenic substrate (AA-HNA, 200 µM) was added and fluorescence was measured in 1 min intervals for 30 min on a plate reader (BioTek). […] All the measurements were performed in N = 2, n = 2 for inhibitors and N = 2, n = 4 for controls with Z′ value ≥0.6. The slope is determined in 5–15 min for all the experiments.

human ABHD6 = target: T2, human ABHD6 (Homo sapiens, UniProt Q9BV23); experiment: ABHD6 activity assay (AA-HNA fluorogenic substrate); conditions: read-out: ABHD6 Inhibition (%)
T2 construct: expressed in transfected cells; host or cells: HEK293T (transient transfection; membrane fraction)
T2 sequence (Q9BV23 1-337): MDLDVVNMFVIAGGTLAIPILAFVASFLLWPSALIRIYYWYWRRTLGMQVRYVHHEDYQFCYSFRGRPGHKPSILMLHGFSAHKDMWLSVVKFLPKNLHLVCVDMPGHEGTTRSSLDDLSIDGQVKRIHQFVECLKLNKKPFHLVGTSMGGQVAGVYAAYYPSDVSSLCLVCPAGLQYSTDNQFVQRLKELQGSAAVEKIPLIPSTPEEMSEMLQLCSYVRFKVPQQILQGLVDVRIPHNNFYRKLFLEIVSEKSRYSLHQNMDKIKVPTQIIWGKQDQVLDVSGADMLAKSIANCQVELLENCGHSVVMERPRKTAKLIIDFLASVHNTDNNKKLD
Procedure: as §1
The MAGL activity assay is based on the hydrolysis of 2-arachidonoylglycerol-based fluorogenic substrate by MAGL-overexpressing membrane preparations from transiently transfected HEK293T cells. In brief, the reactions were performed in HEPES buffer (40 mM HEPES, pH 7.5, 0.1 mg/ml BSA) in black, flat bottom 96-well plates. The final protein concentration of membrane fractions from overexpressing human MAGL HEK293T cells was 12.5 μg/ml 5 µl of inhibitors were added from×40 concentrated DMSO stocks in the 96-well plate containing 145 µl assay buffer, followed by the addition of 40 µl of the protein (12.5 μg/ml). After the incubation of the inhibitor-protein complex for 30 min, 10 µl of the fluorogenic substrate (AA-HNA, 200 µM) was added and fluorescence was measured in 1 min intervals for 30 min on a plate reader (BioTek). Final assay concentrations: 12.5 μg/ml MAGL, […], and […] in the total volume of 200 µl. All the measurements were performed in N = 2, n = 2 for inhibitors and N = 2, n = 4 for controls with Z′ value ≥0.6. The slope is determined in 5–15 min for all the experiments.
The ABHD6 activity assay is based on the same principle as the MAGL activity assay described earlier, but with human ABHD6 overexpressing membrane preparations at a final protein concentration of 50 μg/ml and 200 µM AA-HNA. Other conditions are the same as those of the MAGL activity assay.

human ABHD12 = target: T3, human ABHD12 (Homo sapiens, UniProt Q8N2K0); experiment: ABHD12 activity by competitive ABPP with FP-TAMRA; conditions: read-out: ABHD12 Inhibition (%)
T3 construct: expressed in transfected cells; host or cells: HEK293T (transient transfection; membrane fraction)
T3 sequence (Q8N2K0 1-398): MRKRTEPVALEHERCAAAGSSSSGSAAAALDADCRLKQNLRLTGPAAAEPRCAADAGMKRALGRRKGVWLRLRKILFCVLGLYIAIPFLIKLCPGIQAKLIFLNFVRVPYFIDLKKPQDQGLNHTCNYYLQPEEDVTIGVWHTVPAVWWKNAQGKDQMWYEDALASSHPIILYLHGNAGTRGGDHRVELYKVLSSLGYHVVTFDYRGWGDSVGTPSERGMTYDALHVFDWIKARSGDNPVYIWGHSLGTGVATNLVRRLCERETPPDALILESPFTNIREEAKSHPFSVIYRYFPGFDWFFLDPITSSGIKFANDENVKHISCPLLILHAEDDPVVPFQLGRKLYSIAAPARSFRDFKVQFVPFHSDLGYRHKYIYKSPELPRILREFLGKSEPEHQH
Procedure: as §1
The ABHD12 activity assay is based on competitive activity-based protein profiling (ABPP) with human ABHD12 overexpressing membrane fractions. Briefly, the membrane proteome (1 mg/ml, 20 µl) was incubated at room temperature with 0.5 µl DMSO (vehicle) or inhibitor for 30 min. Subsequently, the samples were treated with the activity-based probe FP-TAMRA (250 nM, final concentration) for 20 min. The reactions were then quenched by 10 µl sample buffer (×4) (final concentrations: 60 mM Tris, pH 6.8, 2% (w/v) SDS, 10% (v/v) glycerol, 5% (v/v) β-mercaptoethanol, 0.01% (v/v) bromophenol blue). The samples were directly loaded and resolved on SDS-PAGE gel (10% acrylamide), which were then scanned using a ChemiDoc MP system (Cy3 settings, BioRad).

[1] = 100 µM, AA-HNA substrate assay, Supplementary Table 1
[2] = 100 µM, AA-HNA substrate assay, Supplementary Table 2
[3] = 100 µM compound, competitive ABPP with probe FP-TAMRA (250 nM)

Compound	activity at 100 µM (human MAGL; [1]) [%]	activity at 100 µM (human ABHD6; [2]) [%]	activity at 100 µM (human ABHD12; [3]) [%]	other results
O=C(CCc1ccc(O)cc1)c1c(O)cc(O)cc1O[C@@H]1O[C@H](CO)[C@@H](O)[C@H](O)[C@H]1O [compound 67, Phlorizin]	75.9	116	96.7	–
O=c1c(O)c(-c2ccc(O)cc2)oc2cc(O)cc(O)c12 [compound 43, Kaempferol]	32.2	84.3	30.2	–
O=C1CCC[C@@H]2[C@H]3CCC[N+]4([O-])CCC[C@@H](CN12)[C@@H]34 (stereo partly drawn) [compound 63, Oxymatrine]	99.9	102	91.3	–
CC(C)(C)[C@]1(O)CC2OC(=O)CC23C(=O)OC2OC(=O)[C@H](O)C231 (stereo partly drawn) [compound 18, Bilobalide]	–	–	–	percent inhibition at 100 µM (human MAGL): 97.8%; percent inhibition of ABHD6 at 100 µM (human ABHD6): 99.5%; percent inhibition at 100 µM (human ABHD12): 83%
COc1ccc(-c2cc(=O)c3c(OC)c(OC)c(OC)c(OC)c3o2)cc1OC [compound 58, Nobiletin]	83.4	100	75.6	–
O=c1cc(-c2ccccc2)oc2cc(O)c(O)c(O)c12 [compound 14, Baicalein]	64.3	131	82.7	–
N#C[C@H](O[C@@H]1O[C@H](CO[C@@H]2O[C@H](CO)[C@@H](O)[C@H](O)[C@H]2O)[C@@H](O)[C@H](O)[C@H]1O)c1ccccc1 [compound 7, Amygdalin]	75.9	90.2	69.8	–
C[C@H]1[C@@H](O)O[C@@H]2O[C@@]3(C)CC[C@H]4[C@H](C)CC[C@@H]1[C@@]24OO3 [compound 26, Dihydroartemisinin]	92.5	89.2	81.1	–
CC1(C)CC[C@]2(C(=O)O)CC[C@]3(C)C(=CC[C@@H]4[C@@]5(C)CC[C@H](O)C(C)(C)[C@@H]5CC[C@]43C)[C@@H]2C1 [compound 59, Oleanolic Acid]	130	98.5	57.7	–
Cc1cc(O)c2c(c1)C(=O)c1cc(O)cc(O)c1C2=O [compound 28, Emodin]	63.2	87.9	67.6	–
COc1ccc([C@@H]2CC(=O)c3c(O)cc(O[C@@H]4O[C@H](CO[C@@H]5O[C@@H](C)[C@H](O)[C@@H](O)[C@H]5O)[C@@H](O)[C@H](O)[C@H]4O)cc3O2)cc1O [compound 38, Hesperidin]	–	–	–	activity (human MAGL; [1]): 91.4%; activity (human ABHD6; [2]): 94.3%; activity (human ABHD12; [3]): 76.6%
c1coc(CNc2ncnc3[nH]cnc23)c1 [compound 44, Kinetin]	90.5	98.5	78.2	–
O=c1c(O)c(-c2ccc(O)c(O)c2)oc2cc(O)ccc12 [compound 29, Fisetin]	76.2	82.4	51.9	–
Myricitrin [compound 53]	–	–	–	percent inhibition (human MAGL; [1]): 93.1%; percent inhibition of ABHD6 (human ABHD6; [2]): 105%; percent inhibition (human ABHD12; [3]): 70%
O=c1cc(-c2ccccc2)oc2cc(O)cc(O)c12 [compound 22, Chrysin]	93.2	105	84	–
CC1(C)[C@@H](O)CC[C@]2(C)[C@H]3C(=O)C=C4[C@@H]5C[C@@](C)(C(=O)O)CC[C@]5(C)CC[C@@]4(C)[C@]3(C)CC[C@@H]12 [compound 30, Enoxolone]	95.9	92	89.1	–
O=c1cccc2n1C[C@@H]1CNC[C@H]2C1 [compound 25, Cytisine]	–	–	–	percent inhibition at 100 µM (human MAGL): 99%; percent inhibition of ABHD6 at 100 µM (human ABHD6): 104%; percent inhibition at 100 µM (human ABHD12): 87.9%
C[C@H]1[C@H](C)CC[C@]2(C(=O)O)CC[C@]3(C)C(=CC[C@@H]4[C@@]5(C)C[C@@H](O)[C@H](O)[C@@](C)(CO)[C@@H]5CC[C@]43C)[C@H]12 [compound 12, Asiatic acid]	86	95.6	72.4	–
C=CCc1ccc(O)c(-c2ccc(O)c(CC=C)c2)c1 [compound 39, Honokiol]	111	83.9	104	–
C=C1C(=O)[C@]23[C@H](O)[C@H]1CC[C@H]2[C@@]12CO[C@]3(O)[C@@H](O)[C@@H]1C(C)(C)CC[C@@H]2O [compound 60, Oridonin]	59.6	102	74.6	–
O=C(O)CCCc1c[nH]c2ccccc12 [compound 4, 3-Indolebutyric acid]	85.4	97.2	77.2	–
